Columns and labels:
Type in all cases: cell-based
[1] = tested on: nucleoside uptake (3H-Thymidine); assay: Rel.Uptake: nucleoside uptake, single concentration assay, cell line as indicated in each table; settings: response relative to DMSO
Procedure: (§1) Nucleoside Uptake Assay (uptake). Nuceloside uptake assays were performed with using 3H-Thymidine as described in Guo et al. (2018) Nat. Chem. 11:254-63. Specific cell lines are indicated in each assay and cultured in complete growth media. Activity is scored according to the IC50 values relative to DMSO control. “Low” indicates an IC50 greater than 600 nM, “Medium” indicates an IC50 between 300 nM and 600 nM “High” indicates an IC50 less than 300 nM. “Rel.Uptake” refers to uptake activity characterization relative to a single concentration assay. “Low” indicates a response greater than 0.6 times the activity relative to DMSO, “Medium” indicates a response between 0.6 and 0.3 times the activity relative to DMSO, “High” indicates a response less than 0.3 times the activity relative to DMSO.

293T = assay: Nucleoside uptake assay (uptake) using 3H-Thymidine, 293T; settings: 293T cells
Procedure: as §1

[2] = tested on: nucleoside uptake (3H-Thymidine); assay: Nucleoside uptake assay (uptake) using 3H-Thymidine, IC50, cell line as indicated in each table (none given in Table 8); settings: 3H-Thymidine uptake; cell line not given
Procedure: as §1

[3] = IC50 class relative to DMSO control

| IC50 [2] [nM] | SMILES | Uptake, 293T (293T; [3]) | other results |
| --- | --- | --- | --- |
| – | COc1ccc(CC[C@H]2OC(=O)[C@@H]3CCCCN3C(=O)C(=O)C(C)(C)COC(=O)C=CCCN(C)C(=O)[C@H](CC(C)C)N(C)C(=O)[C@H]3CCCN3C(=O)[C@H](CC(=O)OC(C)(C)C)N(C)C(=O)C(c3ccccc3)NC(=O)CCC(=O)Nc3cccc2c3)cc1OC (stereo partly shown) [Compound 1066] | high | Rel. Uptake, 293T ([1]; 293T): high |
| – | COc1ccc(CC[C@H]2OC(=O)[C@@H]3CCCCN3C(=O)C(=O)C(C)(C)COC(=O)C=CCCN(C)C(=O)[C@H](CC(C)C)N(C)C(=O)[C@H]3CCCN3C(=O)[C@H](Cc3ccc(CC(=O)OC(C)(C)C)cc3)NC(=O)C(c3ccccc3)NC(=O)CCC(=O)Nc3cccc2c3)cc1OC (stereo partly shown) [Compound 1081] | medium | Rel. Uptake, 293T ([1]; 293T): medium |
| – | COc1ccc(CC[C@H]2OC(=O)[C@@H]3CCCCN3C(=O)C(=O)C(C)(C)COC(=O)C=CCCN(C)C(=O)[C@H](CC(C)C)N(C)C(=O)[C@H]3CCCN3C(=O)[C@H](Cc3ccc(OCc4ccccc4)cc3)NC(=O)C(c3ccccc3)NC(=O)CCC(=O)Nc3cccc2c3)cc1OC (stereo partly shown) [Compound 1082] | low | Rel. Uptake, 293T ([1]; 293T): low |
| – | COc1ccc(CC[C@H]2OC(=O)[C@@H]3CCCCN3C(=O)C(=O)C(C)(C)COC(=O)C=CCCN(C)C(=O)[C@H](CC(C)C)N(C)C(=O)[C@H]3CCCN3C(=O)[C@H]3C[C@@H](NC(=O)OC(C)(C)C)CN3C(=O)C(c3ccccc3)NC(=O)CCC(=O)Nc3cccc2c3)cc1OC (stereo partly shown) [Compound 1087] | low | Rel. Uptake, 293T ([1]; 293T cells): low |
| – | COc1ccc(CC[C@H]2OC(=O)[C@@H]3CCCCN3C(=O)C(=O)C(C)(C)COC(=O)C=CCCN(C)C(=O)[C@H](CC(C)C)N(C)C(=O)[C@H]3CCCN3C(=O)[C@H](Cc3ccccc3)N(C)C(=O)[C@H](CC(=O)OC(C)(C)C)NC(=O)CCC(=O)Nc3cccc2c3)cc1OC [Compound 1088] | low | Rel. Uptake, 293T ([1]; 293T cells): low |
| – | COc1ccc(CC[C@H]2OC(=O)[C@@H]3CCCCN3C(=O)C(=O)C(C)(C)COC(=O)C=CCCN(C)C(=O)[C@@H](c3ccccc3)NC(=O)[C@H](Cc3ccc(OP(C)(C)=O)cc3)NC(=O)[C@H]3CCCN3C(=O)[C@H](CC(C)C)N(C)C(=O)COc3cccc2c3)cc1OC [Compound 1520] | – | Rel. Uptake, 293T ([1]; 293T, nucleoside uptake): low; Uptake, 293T (293T; Table 16): low |
| – | COc1ccc(CC[C@H]2OC(=O)[C@@H]3CCCCN3C(=O)C(=O)C(C)(C)COC(=O)C=CCCN(C)C(=O)[C@H](CC(C)C)N(C)C(=O)[C@H]3CCCN3C(=O)[C@H](Cc3ccc(O)cc3)NC(=O)C(c3ccccc3)NC(=O)CCC(=O)Nc3cccc2c3)cc1OC (stereo partly shown) [Compound 1522] | high | Rel. Uptake, 293T ([1]; 293T, nucleoside uptake): high |
| – | COc1ccc(CC[C@H]2OC(=O)[C@@H]3CCCCN3C(=O)C(=O)C(C)(C)CNC(=O)C=CCCN(C)C(=O)[C@H](CC(C)C)N(C)C(=O)[C@H]3CCCN3C(=O)[C@H](Cc3ccccc3)N(C)C(=O)C(c3ccccc3)NC(=O)CCC(=O)Nc3cccc2c3)cc1OC (stereo partly shown) [Compound 1555] | high | Rel. Uptake, 293T ([1]; 293T, nucleoside uptake): high |
| – | COc1ccc(CC[C@H]2OC(=O)[C@@H]3CCCCN3C(=O)C(=O)C(C)(C)COC(=O)C=CCCN(C)NC(c3ccccc3)C(=O)N(C)[C@@H](Cc3ccccc3)C(=O)N3CCC[C@@H]3C(=O)N(C)[C@@H](CC(C)C)C(=O)C(=O)CCOc3cccc2c3)cc1OC (stereo partly shown) [Compound 1556] | low | Rel. Uptake, 293T ([1]; 293T, nucleoside uptake): low |
| – | COc1ccc(CC[C@H]2NC(=O)[C@@H]3CCCCN3C(=O)C(=O)C(C)(C)COC(=O)C=CCCN(C)C(=O)[C@H](CC(C)C)N(C)C(=O)[C@H]3CCCN3C(=O)[C@H](Cc3ccccc3)N(C)C(=O)C(c3ccccc3)NC(=O)CCC(=O)Nc3cccc2c3)cc1OC (stereo partly shown) [Compound 1557] | high | Rel. Uptake, 293T ([1]; 293T, nucleoside uptake): high |
| – | COc1ccc(CC[C@H]2OC(=O)[C@@H]3CCCCN3C(=O)C(=O)C(C)(C)COC(=O)C=CCCN(C)C(=O)[C@H](CC(C)C)N(C)C(=O)[C@H]3CCCN3C(=O)[C@H](Cc3ccc(C(=O)NCCO)cc3)NC(=O)[C@H](c3ccccc3)NC(=O)CCC(=O)Nc3cccc2c3)cc1OC [Compound 1558] | – | Rel. Uptake, 293T ([1]; 293T, nucleoside uptake): high; Uptake, 293T (293T; Table 15): high |
| – | COc1ccc(CC[C@H]2OC(=O)[C@@H]3CCCCN3C(=O)C(=O)C(C)(C)COC(=O)C=CCCN(C)C(=O)[C@H](CC(C)C)N(C)C(=O)[C@H]3CCCN3C(=O)[C@H](Cc3ccc(C(=O)Nc4ccccc4)cc3)NC(=O)[C@H](c3ccccc3)NC(=O)CCC(=O)Nc3cccc2c3)cc1OC [Compound 1559] | – | Rel. Uptake, 293T ([1]; 293T, nucleoside uptake): medium; Uptake, 293T (293T; Table 15): medium |
| 33.5 | COc1ccc(CC[C@H]2OC(=O)[C@@H]3CCCCN3C(=O)C(=O)C(C)(C)COC(=O)/C=C/CCN(C)C(=O)[C@H](C(C)C)N(C)C(=O)[C@@H]3CCCN3C(=O)[C@@H](Cc3ccccc3)N(C)C(=O)[C@H](C)NC(=O)COc3cccc2c3)cc1OC [Compound 1612] | – | – |
| 59.5 | COCC[C@@H]1NC(=O)COc2cccc(c2)[C@@H](CCc2ccc(OC)c(OC)c2)OC(=O)[C@@H]2CCCCN2C(=O)C(=O)C(C)(C)COC(=O)/C=C/CCN(C)C(=O)[C@H](C(C)C)N(C)C(=O)[C@@H]2CCCN2C(=O)[C@@H](Cc2ccccc2)N(C)C1=O [Compound 1613] | – | – |
| 12.2 | CCC[C@@H]1NC(=O)CCC(=O)Nc2cccc(c2)[C@@H](CCc2ccc(OC)c(OC)c2)OC(=O)[C@@H]2CCCCN2C(=O)C(=O)C(C)(C)COC(=O)/C=C/CCN(C)C(=O)[C@H]([C@@H](C)CC)N(C)C(=O)[C@@H]2CCCN2C(=O)[C@@H](Cc2ccccc2)N(C)C1=O [Compound 1615] | – | – |
| 173 | CCC[C@@H]1NC(=O)COc2cccc(c2)[C@@H](CCc2ccc(OC)c(OC)c2)OC(=O)[C@@H]2CCCCN2C(=O)C(=O)C(C)(C)COC(=O)/C=C/CCN(C)C(=O)[C@H]([C@@H](C)CC)N(C)C(=O)[C@@H]2CCCN2C(=O)[C@@H](Cc2ccccc2)N(C)C1=O [Compound 1618] | – | – |
| 66.7 | COc1ccc(CC[C@H]2OC(=O)[C@@H]3CCCCN3C(=O)C(=O)C(C)(C)COC(=O)/C=C/CCN(C)C(=O)[C@H](C)N(C)C(=O)[C@@H]3CCCN3C(=O)[C@@H](Cc3ccccc3)N(C)C(=O)[C@H](C)NC(=O)COc3cccc2c3)cc1OC [Compound 1619] | – | – |
| 28.5 | COc1ccc(CC[C@H]2OC(=O)[C@@H]3CCCCN3C(=O)C(=O)C(C)(C)COC(=O)C=CCCN(C)C(=O)[C@H](CC(C)C)N(C)C(=O)[C@@H]3CCCN3C(=O)[C@@H](Cc3ccccc3)N(C)C(=O)CNC(=O)COc3cccc2c3)cc1OC [Compound 1622] | – | – |
| 10.5 | COc1ccc(CC[C@H]2OC(=O)[C@@H]3CCCCN3C(=O)C(=O)C(C)(C)COC(=O)C=CCCN(C)C(=O)[C@H](CC(C)C)N(C)C(=O)[C@@H]3CCCN3C(=O)[C@@H](Cc3ccccc3)N(C)C(=O)[C@H](C)NC(=O)COc3cccc2c3)cc1OC [Compound 1623] | – | – |
| 31.4 | COc1ccc(CC[C@H]2OC(=O)[C@@H]3CCCCN3C(=O)C(=O)C(C)(C)COC(=O)C=CCCN(C)C(=O)[C@H](CC(C)C)N(C)C(=O)[C@@H]3CCCN3C(=O)[C@@H](Cc3ccccc3)N(C)C(=O)[C@H](C)NC(=O)CCC(=O)Nc3cccc2c3)cc1OC [Compound 1624] | – | – |
| 155 | COc1ccc(CC[C@H]2OC(=O)[C@@H]3CCCCN3C(=O)C(=O)C(C)(C)COC(=O)C=CCCN(C)C(=O)[C@@H](C)N(C)C(=O)[C@@H]3CCCN3C(=O)[C@@H](Cc3ccccc3)N(C)C(=O)CNC(=O)COc3cccc2c3)cc1OC [Compound 1626] | – | – |
| 262 | COc1ccc(CC[C@H]2OC(=O)[C@@H]3CCCCN3C(=O)C(=O)C(C)(C)COC(=O)C=CCCN(C)C(=O)C3(CCCCC3)NC(=O)[C@@H]3CCCN3C(=O)[C@@H](Cc3ccccc3)N(C)C(=O)CNC(=O)COc3cccc2c3)cc1OC [Compound 1627] | – | – |

| SMILES | IC50 [2] [nM] | Uptake, 293T (293T; [3]) | other results |
| --- | --- | --- | --- |
| CC[C@H](C)[C@H]1C(=O)N(C)CC/C=C/C(=O)OCC(C)(C)C(=O)C(=O)N2CCCC[C@H]2C(=O)O[C@H](CCc2ccc(OC)c(OC)c2)c2cccc(c2)NC(=O)CCC(=O)N[C@@H](C)C(=O)N(C)[C@H](Cc2ccccc2)C(=O)N2CCC[C@H]2C(=O)N1C [Compound 1614] | 34.4 | – | – |
| CC[C@H](C)[C@H]1C(=O)N(C)CC/C=C/C(=O)OCC(C)(C)C(=O)C(=O)N2CCCC[C@H]2C(=O)O[C@H](CCc2ccc(OC)c(OC)c2)c2cccc(c2)NC(=O)CCC(=O)N[C@@H](c2ccccc2)C(=O)N(C)[C@H](Cc2ccccc2)C(=O)N2CCC[C@H]2C(=O)N1C [Compound 1616] | 100 | – | – |
| CC[C@H](C)[C@H]1C(=O)N(C)CC/C=C/C(=O)OCC(C)(C)C(=O)C(=O)N2CCCC[C@H]2C(=O)O[C@H](CCc2ccc(OC)c(OC)c2)c2cccc(c2)OCC(=O)N[C@@H](C)C(=O)N(C)[C@H](Cc2ccccc2)C(=O)N2CCC[C@H]2C(=O)N1C [Compound 1617] | 34.1 | – | – |
| CCCC[C@H]1C(=O)N(C)CC/C=C/C(=O)OCC(C)(C)C(=O)C(=O)N2CCCC[C@H]2C(=O)O[C@H](CCc2ccc(OC)c(OC)c2)c2cccc(c2)OCC(=O)NCC(=O)N(C)[C@H](Cc2ccccc2)C(=O)N2CCC[C@H]2C(=O)N1C [Compound 1620] | 13.9 | – | – |
| CCCC[C@H]1C(=O)N(C)CCC=CC(=O)OCC(C)(C)C(=O)C(=O)N2CCCC[C@H]2C(=O)O[C@H](CCc2ccc(OC)c(OC)c2)c2cccc(c2)OCC(=O)N[C@@H](C)C(=O)N(C)[C@H](Cc2ccccc2)C(=O)N2CCC[C@H]2C(=O)N1C [Compound 1621] | 9.76 | – | – |
| CCC[C@H]1C(=O)N(C)CCC=CC(=O)OCC(C)(C)C(=O)C(=O)N2CCCC[C@H]2C(=O)O[C@H](CCc2ccc(OC)c(OC)c2)c2cccc(c2)OCC(=O)NCC(=O)N(C)[C@H](Cc2ccccc2)C(=O)N2CCC[C@H]2C(=O)N1C [Compound 1625] | 42.3 | – | – |

From patent US11066416B2, “Rapafucin derivative compounds and methods of use thereof” (The Johns Hopkins University, priority 2016, dated 2021)
